Laboratory results taken from patent US10894948B2, “Resetting pluripotent stem cells” (CAMBRIDGE ENTERPRISE LIMITED, priority 2014, dated 2021).
Entries after “also recorded” stand apart in the source; their conditions may differ.

How the values were obtained:
[1] = tested on: reset cells; experiment: Colony forming assay (alkaline phosphatase staining) in t2iL+Gö; type: cell-based, human; details: transgene-free reset cells in t2iL+Gö plus inhibitor, without ROCKi
Method: E. Colony forming assay. Cells maintained in t2iL+Gö were seeded without ROCKi at 2000 cells/well in 12 well dishes in t2iL+Gö plus FGF receptor inhibitor PD17 or TGF-β/activin receptor inhibitor A83-01. Colonies were stained for alkaline phosphatase after 7 days.
G. Colony forming assays on transgene-free reset cells. Cells maintained in t2iL+Gö were seeded at 2000 cells/well in […] in t2iL+Gö plus FGF receptor inhibitor PD17 or TGF-b/activin receptor inhibitor A83-01 and without ROCKi. Colonies were stained for alkaline phosphatase after 7 days.
Reset H9 cells maintained in t2iL+Gö were seeded without ROCKi at 2000 cells/well in 12 well dishes in t2iL+Gö. FGF receptor inhibitor PD173074 or TGF-β/activin receptor inhibitor A83-01 were added. Colonies were stained for alkaline phosphatase after 7 days.
Colony forming assays were carried out on MEF feeder cells by plating 1000 cells per well in 24-well plates, 2000 cells for 12-well plates and 5000 cells for 6-well plates. ROCKi was used for conventional but not reset cells. Activin/TGF β receptor inhibitor A83-01 was used at 0.25 μM where indicated. Plates were fixed and stained for alkaline phosphatase (Sigma-Aldrich, cat. 86R-1KT). Plates were scanned using a CellCelector (Aviso) or cellSens Dimension (Olympus).

[2] = tested on: H9 and Shef6 cells; experiment: Resetting by transient transfection with NANOG and KLF2 plasmids; type: cell-based, human; details: pilot experiments
Excerpt: For transient expression and resetting we first generated H9 and Shef6 cells with an EOS-GFP/puro^R reporter (Hotta et al., 2009) introduced in a piggyBac vector. We have observed that in the PB rather than lentiviral vector context this reporter is initially expressed heterogeneously in conventional PSC and progressively silenced, but is re-expressed during resetting. We used NANOG and KLF2 expression constructs driven by the CAG promoter harbouring a blasticidin resistance gene. One well of a 6-well plate was transfected as above with 3 μg of non-linearised NANOG and KLF2 plasmids. Two days later, medium was switched to N2B27 with PD173074 (PD17, 0.5 μM), PD03 (0.5 μM) and hLIF. At day 4, cells were retransfected and on day 8 medium was changed to t2iL+Gö. Puromycin selection (0.5 μg/ml) was applied from day 12 onwards for two passages. Single colonies were picked on passage 4 or 5. […]
We investigated the timespan for resetting by inducing NANOG/KLF2 expression with DOX for finite intervals then assaying colony formation in t2iL+Gö. […] These were indistinguishable in morphology from cultures in which transgenes […] or from reset cells generated previously with inducible transgenes. qRT-PCR and immunostaining confirmed sustained expression of ground state pluripotency factors (FIG. 7E, F). […]

[3] = tested on: reset cells; experiment: Expansion of reset cells in different CH concentrations; type: cell-based, human
Method: C. Expansion of reset cells in different CH concentrations. Cells were plated at 5×10^4 cells per well and cultured for 4 days in PD03 (1 μM) with LIF, and 0, 1, or 3 μM CH. Y axis indicates cell number (×10^4).
Moderating GSK3 inhibition improves self-renewal of rat ES cells (Chen et al., 2013a; Meek et al., 2013) and we have also observed that combination of Gö6983 with the GSK3 inhibitor CH is unfavourable for mouse ESC propagation (J. Wray and A S, unpublished). We therefore titrated CH. […] Henceforth cells were maintained in titrated 2i with LIF and Gö6983 (t2iL+Gö).

[4] = tested on: reset cells and conventional PSC; experiment: Oxygen consumption rate (SeaHorse extracellular flux); type: cell-based, human; details: injected during assay
Method: A. Oxygen consumption rate (OCR). Measurements obtained using a SeaHorse Extracellular Flux analyser.
Oxygen consumption was measured using an XF^e24 Analyzer (SeaHorse Bioscience) according to the manufacturer's protocol. In brief, SeaHorse plates were pre-treated by coating with laminin and 80,000 cells were seeded on each well the night before the experiment. Culture media were exchanged for XF Base Medium (SeaHorse bioscience) supplemented with 2 mM pyruvate and 20 mM glucose with an adjusted pH of 7.4 and cells incubated at 37° C. in atmospheric CO2 for one hour. Oligomycin (2 μM), FCCP ([…]), Antimycin (1 μM) and Rotenone (1 μM) were injected during assay (XF cell mito stress test kit, Seahorse Bioscience). Mitochondria were stained with Mito Tracker Green FM (final concentration 50 nM, Life Technologies) or Tetramethylrhodamine, ethyl ester (TMRE, final concentration 20 nM, Life Technologies) in the relevant medium for 10 minutes and analysed by confocal microscopy.

[5] = tested on: reset H9 cells; experiment: Propagation of reset cells in 2iL upon DOX withdrawal; type: cell-based, human; details: 5 μM added to 2iL upon DOX withdrawal
Method: B. PKC inhibitor Gö6983 maintains the reset state in the absence of transgene expression. Upon DOX withdrawal cells in 2iL degenerated. […] Note that intrinsic fluorescence of Gö produces a faint red background signal.
To induce resetting, transfected PSC were dissociated with trypsin and replated as single cells in the presence of ROCK inhibitor. Doxycycline (DOX, 1 μM) was added the next day and 24 h later medium was changed to N2B27 medium (Ndiff227, StemCells Inc., SCS-SF-NB-02) with 1 μM PD0325901 (PD03), human LIF (prepared in-house), DOX and either 3 μM CHIR99021 (2iL+DOX) or 1 μM CHIR99021 (t2iL+DOX). Medium was changed every day. Cells were split every five to seven days after dissociation to single cells with Accutase (Life Technologies) for 10 minutes. Around two weeks after DOX induction, cells were transferred to t2iL+5 μM PKC inhibitor Gö6983 (Sigma-Aldrich) (t2iL+Gö). Reset cells cultured in t2iL+Gö were also passaged every five to seven days as single cells. Cells transferred to t2iL+Gö proliferate slowly for the initial couple of passages after withdrawal of DOX. Cells were maintained on MEF feeders throughout.
These cultures expressed OCT4 (FIG. 8) and expanded continuously, although proliferation was reduced and morphology less consistent compared to DOX-maintained cells.

[6] = tested on: reset cells; experiment: Feeder-free culture of reset cells on Matrigel or Laminin 511-E8; type: cell-based, human; details: Gö reduced to 2 μM, ROCKi added prior to passaging
Method: For feeder-free culture plates were coated overnight at 4° C. with either diluted BD Matrigel hES-qualified Matrix (1:30) or Laminin 511-E8 (iMatrix-511; Nippi) at […] (Nakagawa et al., 2014). Cells were dissociated in the presence of ROCKi and plated in t2iL with Gö reduced to 2 μM.
Based on observations with mouse ESC we realised that Gö concentration was critical without buffering by feeders. We therefore reduced Gö to 2 μM and also added ROCKi prior to passaging. […] On both substrates cells could be expanded, albeit more slowly on laminin, and ground state pluripotency factor expression was retained over several passages (FIG. 1L).

[7] = tested on: reset iH9-EOS cells; experiment: Culture of reset cells in t2iL with Ro-31-8425 replacing Gö6983; type: cell-based, human; details: 0.1 μM in t2iL, 25 days (7 passages)
Method: FIG. 41 Bright field and fluorescence images of reset iH9-EOS cells after culture for 25 days (7 passages) in […] with Ro-31-8425 (0.1 μM) replacing Gö6983.

[8] = tested on: Human ES cells Shef6 and H9, which carry the EOS reporter; experiment: Resetting without transgenes, EOS-GFP reporter (FACS, colonies); type: cell-based
Method: PDL-HDACi comprises mTeSR™-E6 basal medium (Stem Cell Technologies) supplemented with 1 μM PD0325901, human LIF (10 ng/ml, prepared in house) and a
HDAC inhibitor such as valproic acid sodium salt (VPC, 0.5-1 mM, Sigma,) or sodium butyrate (SB, 0.5-1 mM, Sigma).
Optionally a Wnt pathway inhibitor such as XAV939 (2 μM) may be included, constituting PDXL.
Human ES cells Shef6 and H9, which carry the EOS reporter [Hotta], were plated at a density of 50,000 to 100,000 cells per well of a six well tissue culture dish in KSR/FGF medium supplemented with 10 μM ROCK inhibitor (Y-27632). The day after medium was replaced with resetting medium (PDL-HDACi or PDXL-HDACi) for the following three days. Thereafter the cells were maintained in naïve maintenance medium, T2ilGö-FROCKi (FIG. 30).
EOS reporter contains a GFPIresPuro cassette driven by LTR of early transposon and a trimer of mouse Oct4 distal enhancer. The EOS reporter in majority of conventional human ES cells is expressed at low to undetectable level by microscope. More than 80 percent of cells do show low to moderate GFP expression by flow cytometry analysis (FACS) (FIG. 31). The resetting medium induced vast cell death and differentiation three days after. The dome shaped GFP positive colonies appears around Day5 to Day7 and peaked after day10 to day 12 (FIG. 32, FIG. 33, FIG. 34). The colonies can then be passaged in bulk or picked singly using TrypLE™ express. Puromycin selection is applied for one or two passages to exclude differentiated cells if needed. The reset cells expressed elevated naïve state markers, TFCP2L1 and DPPA3 from Day7 during resetting (FIG. 35). Two pools, iS6-N and iS6-E, have been maintained over 15 passages and are karyotypically normal by G-band analysis. They form embryoid body readily in low adhesive 96 well plates and up-regulate differentiation markers (FIG. 36).

Cc1cccc(-c2nn(C(=S)Nc3ccccc3)cc2-c2ccnc3ccccc23)n1 [A83-01]
proliferation without differentiation [1]: continued to proliferate without differentiation

Cc1c[nH]c(-c2cnc(NCCNc3ccc(C#N)cn3)nc2-c2ccc(Cl)cc2Cl)n1 [CH]
effect on the resetting process [2]: appeared inhibitory to the resetting process | growth rate and colony morphology ([3]; 1 μM CH, with PD03 (1 μM), LIF and Gö6983): restored growth rate while maintaining morphology | growth rate and colony morphology ([3]; complete absence of CH): colony morphology improved in the complete absence of CH, but growth rate was reduced

N#CC(C#N)=NNc1ccc(OC(F)(F)F)cc1 [FCCP]
oxygen consumption rate (OCR), reset cells versus conventional PSC [4]: greater OCR increase in reset cells than conventional PSC

COc1ccc2c(c1)c(C1=C(c3c[nH]c4ccccc34)C(=O)NC1=O)cn2CCCN(C)C [Gö6983, 3-[1-[3-(dimethylamino)propyl]-5-methoxy-1H-indol-3-yl]-4-(1H-indol-3-yl)-1H-pyrrole-2,5-dione]
maintenance of the reset state in the absence of transgene expression [5]: maintained cell proliferation and compact colony morphology; also recorded: allowed maintenance of compact refractile colonies without Venus expression | undifferentiated colony formation without feeders [6]: could form undifferentiated colonies on Matrigel or laminin 511-E8

CCN(CC)CCCCNc1ncc2cc(-c3cc(OC)cc(OC)c3)c(NC(=O)NC(C)(C)C)nc2n1 [PD17]
effect on the resetting process [2]: might favour resetting

Cn1cc(C2=C(c3c4n(c5ccccc35)CCC(CN)C4)C(=O)NC2=O)c2ccccc21 (stereo not shown) [Ro-31-8425]
use as alternative PKC inhibitor for culture of reset cells [7]: can be used as an alternative to Gö6983

CCCC(=O)[O-].[Na+] [Sodium butyrate, sodium butyrate]
resetting induction (GFP expression by FACS) ([8]; 7 days after resetting): potent resetting inducer

CCCC(CCC)C(=O)[O-].[Na+] [VPC, valproic acid sodium salt]
resetting efficiency (GFP expression by FACS) ([8]; three days VPC treatment, 7 days after resetting, increase from around 1%): ~3%

Oc1nc(-c2ccc(C(F)(F)F)cc2)nc2c1CSCC2 [XAV939]
colony yield / resetting efficiency ([8]; 2 μM in transgene-free resetting medium (PDXL)): colony yield may be higher for some cell lines but colonies are also more heterogeneous; also recorded: could significantly increase resetting efficiency

CC[C@H]1/C=C/C=C/C[C@@H](C)[C@H](O)[C@@](C)(O)C(=O)[C@@H](C)[C@H](O)[C@@H](C)C(=O)[C@@H](C)[C@H](O)[C@@H](C)/C=C/C(=O)O[C@@H]2[C@H](C)[C@H](CC1)O[C@]1(CC[C@H](C)[C@H](C[C@@H](C)O)O1)[C@H]2C [oligomycin]
oxygen consumption rate (OCR), reset cells versus conventional PSC [4]: difference was minimised
